Assay results from patent US20150141460A1, “Anti-inflammatory Compositions” (Cambridge Enterprise Limited, priority 2007, published 2015).
Where two headings read alike, the source gives them in different places.

How the values were obtained:
[1] = test system: RANTES induced migration of THP-1 cells; assay: ChemoTx transwell migration assay, RANTES induced migration of THP-1 cells; assay type: cell-based; conditions: Homo sapiens; THP-1 cell line; maximal dose of chemoattractant; read-out: ED50 RANTES induced migration
Experimental: (§1) In principle, this assay consists of two chambers separated by a porous membrane. The chemoattractant is placed in the lower compartment and the cells are placed in the upper compartment. After incubation for a period at 37° C. the cells move towards the chemoattractant, and the number of cells in the lower compartment is proportional to the chemoattractant activity (relative to a series of controls).
Next, the chemoattractant solution to be placed in the lower compartment is prepared. For example, MCP-1 is diluted in GBSS+BSA to give a final concentration of 25 ng/ml. This is divided into two pots, as for the cell suspension. To one pot, the test compound is added to the same final concentration as was added to the cell suspension, while to the other pot an equal volume of GBSS+BSA plus vehicle as appropriate (e.g., not more than 1% DMSO) is added. Alternatively, other chemokines may be used (SDF-1α at 7.5 ng/ml; RANTES at 50 ng/ml; IL-8 at 10 ng/ml using neutrophils as the target cell population). […]
The impact of the test substance is calculated by comparing the chemoattractant-induced migration which occurred in the presence or absence of various concentrations of the test substance. Typically, the inhibition of migration is expressed as a percentage of the total chemoattractant-induced migration which was blocked by the presence of the compound. […]

[2] = Distribution of unchanged compound into tissues and urine 24 hrs after a single dose in rat; assay type: in vivo; conditions: for Urine (ng/ml) unchanged parent compound: 24 hrs after a single oral dose 3 mg/kg in 1% CMC
Experimental: Urine was collected from rats exposed to a single oral dose (3 mg/kg in 1% CMC) of each compound over a 24 hour period in metabolic cages. The pooled urine sample was then subjected to full scan mass spectral analysis, using the same LC-MS conditions as described in example 1 above. Further MS-MS analysis of the product ions was then performed, and likely fragmentations/re-arrangements assigned from the publicly available Metabolite ID database.
To provide a quantitative estimate of the degree of metabolism suffered by each of the compounds tested, the amount of unchanged parent compound in urine was measured using the same validated LC-MS assay described in example 1, using (S)-3-(2′,2′-dimethylpropanoylamino)-caprolactam as an internal standard. In addition, the level of compounds in various target tissues was also determined.

[3] = test system: MCP-1 induced migration of THP-1 cells; assay: ChemoTx transwell migration assay, MCP-1 induced migration of THP-1 cells; assay type: cell-based; conditions: Homo sapiens
Experimental: FIGS. 6A-6F show representative dose response curves for the inhibition of chemokine-induced leukocyte migration in vitro, for each of the five compounds (I′) to (V) in the ChemoTx™ transwell migration assay. In each experiment, THP-1 cells were induced to migrate using a maximally effective dose of the chemokine MCP-1 in the presence or absence of various doses (from 10 pM to 1 μM) of each compound. An appropriate vehicle control was used in each experiment. The percentage inhibition of MCP-1 induced migration (calculated as the number of cells migrated in the presence of MCP-1 minus the number of cells migrated with MCP-1 omitted from the lower chamber) at each concentration of each test compound is shown as the mean of triplicate determinations, with whiskers representing SEM. The ED50 was estimated by linear interpolation of the presented graphs. The Y-axis of each graph represents the percentage inhibition of MCP-1 induced migration; the X-axis represents the concentration of test compound present in units of nM (0.01-1000).
as §1
The THP-1 cell line (European Cell Culture Collection) were used as the leukocyte cell population.
First, the cell suspension to be placed in the upper compartment is prepared. The THP-1 cells are pelleted by centrifugation (770×g; 4 mins) and washed with Geys Balanced Salt Solution with 1 mg/ml BSA (GBSS+BSA). This wash is then repeated, and the cells repelleted before being resuspended in a small volume of GBSS+BSA for counting, for example using a standard haemocytometer.
The volume of GBSS+BSA is then adjusted depending on the number of cells present so that the cells are at final density of 4.45×10^6 cells per ml of GBSS+BSA. This ensures that there are […] THP-1 cells in each 25 μl of the solution that will be placed in the upper chamber of the plate.
To test a single compound for its ability to inhibit chemokine induced migration, it is necessary to prepare two lots of cells. The suspension of THP-1 cells at 4.45×10^6 cells/ml is divided into two pots. To one pot the inhibitor under test is added at an appropriate final concentration, in an appropriate vehicle (for example at 1 μM in not more than 1% DMSO). To the second pot an equal volume of GBSS+BSA plus vehicle as appropriate (e.g. not more than 1% DMSO) is added to act as a control.
Next, the chemoattractant solution to be placed in the lower compartment is prepared. […]

[4] = THP-1 cell line, maximal dose of chemoattractant, Table 6, read-out: ED50 MCP-1 induced migration
[5] = THP-1 cells, Table 5, read-out: Functional ED50 versus MCP-1

Row | SMILES | EC50 [1] [nM] | Urine (ng/ml) unchanged parent compound [2] [ng/mL] | unchanged parent compound recovered in urine, % of the injected dose ([2]; single oral dose 3 mg/kg in 1% CMC, 24 hrs) | EC50 [3, 4] [nM] | EC50 [3, 5] [nM]
1 | CC(C)(C)C(=O)N[C@H]1CCCNC1=O [Compound (I′), (S)-3-(2′,2′-dimethylpropanoylamino)-tetrahydropyridin-2-one] | 0.08 | 24567 | more than 60% | 0.05 | 0.05
2 | O=C1NCCCC[C@@H]1NC(=O)C12CC3CC(CC(O)(C3)C1)C2 [Compound (V), 3-(3′-hydroxyadamantyl-1-carbonylamino)-caprolactam] | 0.25 | 16300 | – | 0.12 | 0.12
